In the OligoGym collection:
HELM strings list units from the 5' end as sugar, base in round brackets, then linkage (d deoxyribose, r ribose, m 2'-O-methyl, p phosphodiester). Strings are as the collection lists them; they lack the last nucleoside at the 3' end of the tested compound. [moe] = 2'-O-(2-methoxyethyl) (MOE); [sp] = phosphorothioate linkage; [m5C] = 5-methylcytosine

Target: APP
Test: mouse, dose not given
Details: ASO

Substance | 3 h FOB score [score 0-7]
RNA1{[moe](A)[sp].[moe]([m5C])p.[moe](T)p.[moe](G)p.[moe](A)[sp].d(T)[sp].d(T)[sp].d(A)[sp].d(T)[sp].d([m5C])[sp].d(A)[sp].d(A)[sp].d(A)[sp].d(T)[sp].d(T)[sp].[moe]([m5C])p.[moe]([m5C])p.[moe](G)[sp].[moe](G)}$$$$ (last 3' nucleoside missing) | 0.25
RNA1{[moe](A)[sp].[moe]([m5C])p.[moe](T)p.[moe](T)p.[moe](A)[sp].d([m5C])[sp].d(A)[sp].d(A)[sp].d(A)[sp].d([m5C])[sp].d(T)[sp].d([m5C])[sp].d(A)[sp].d([m5C])[sp].d([m5C])[sp].[moe](A)p.[moe](A)p.[moe]([m5C])[sp].[moe](T)}$$$$ (last 3' nucleoside missing) | 1
RNA1{[moe](A)[sp].[moe]([m5C])p.[moe](T)p.[moe](T)p.[moe]([m5C])[sp].d(T)[sp].d(A)[sp].d([m5C])[sp].d(T)[sp].d(A)[sp].d([m5C])[sp].d(T)[sp].d(T)[sp].d(T)[sp].d(G)[sp].[moe](T)p.[moe]([m5C])p.[moe](T)[sp].[moe](T)}$$$$ (last 3' nucleoside missing) | 1.5
RNA1{[moe](A)[sp].[moe]([m5C])p.[moe](T)p.[moe]([m5C])p.[moe](A)[sp].d([m5C])[sp].d(A)[sp].d([m5C])[sp].d(A)[sp].d([m5C])[sp].d(T)[sp].d(G)[sp].d(T)[sp].d(T)[sp].d(T)[sp].[moe]([m5C])p.[moe](A)p.[moe](A)[sp].[moe](G)}$$$$ (last 3' nucleoside missing) | 2.67
RNA1{[moe](A)[sp].[moe]([m5C])p.[moe](T)p.[moe]([m5C])p.[moe](G)[sp].d(A)[sp].d(A)[sp].d([m5C])[sp].d([m5C])[sp].d(A)[sp].d([m5C])[sp].d([m5C])[sp].d(T)[sp].d([m5C])[sp].d(T)[sp].[moe](T)p.[moe]([m5C])p.[moe]([m5C])[sp].[moe](A)}$$$$ (last 3' nucleoside missing) | 0
RNA1{[moe](G)[sp].[moe](A)[sp].[moe](T)p.[moe]([m5C])p.[moe](T)[sp].d(G)[sp].d(A)[sp].d(A)[sp].d(T)[sp].d([m5C])[sp].d([m5C])[sp].d([m5C])[sp].d(A)[sp].d([m5C])[sp].d(T)[sp].[moe](T)p.[moe]([m5C])p.[moe]([m5C])[sp].[moe]([m5C])}$$$$ (last 3' nucleoside missing) | 0.25
RNA1{[moe](G)[sp].[moe](A)p.[moe](A)p.[moe](G)p.[moe]([m5C])[sp].d(A)[sp].d(T)[sp].d(A)[sp].d(T)[sp].d(T)[sp].d([m5C])[sp].d([m5C])[sp].d(T)[sp].d([m5C])[sp].d(T)[sp].[moe](A)p.[moe](T)p.[moe]([m5C])[sp].[moe]([m5C])}$$$$ (last 3' nucleoside missing) | 0.67
RNA1{[moe](G)[sp].[moe](A)p.[moe](A)p.[moe](G)p.[moe]([m5C])[sp].d(T)[sp].d(T)[sp].d(A)[sp].d([m5C])[sp].d(A)[sp].d(T)[sp].d([m5C])[sp].d(A)[sp].d(T)[sp].d(T)[sp].[moe](T)p.[moe](T)p.[moe]([m5C])[sp].[moe](T)}$$$$ (last 3' nucleoside missing) | 0
RNA1{[moe](G)[sp].[moe](A)p.[moe](A)p.[moe]([m5C])p.[moe](T)[sp].d([m5C])[sp].d(G)[sp].d(A)[sp].d(A)[sp].d([m5C])[sp].d([m5C])[sp].d(A)[sp].d([m5C])[sp].d([m5C])[sp].d(T)[sp].[moe]([m5C])p.[moe](T)p.[moe](T)[sp].[moe]([m5C])}$$$$ (last 3' nucleoside missing) | 1
RNA1{[moe](G)[sp].[moe](A)p.[moe](G)p.[moe](A)p.[moe](T)[sp].d(A)[sp].d([m5C])[sp].d(T)[sp].d(T)[sp].d(G)[sp].d(T)[sp].d([m5C])[sp].d(A)[sp].d(A)[sp].d([m5C])[sp].[moe](G)p.[moe](G)p.[moe]([m5C])[sp].[moe](A)}$$$$ (last 3' nucleoside missing) | 1.67
RNA1{[moe](G)[sp].[moe](A)p.[moe](G)p.[moe](T)p.[moe](A)[sp].d(A)[sp].d(A)[sp].d(T)[sp].d([m5C])[sp].d(A)[sp].d(T)[sp].d(A)[sp].d(A)[sp].d(A)[sp].d(A)[sp].[moe]([m5C])p.[moe](G)p.[moe](G)[sp].[moe](G)}$$$$ (last 3' nucleoside missing) | 2
RNA1{[moe](G)[sp].[moe](A)p.[moe](T)p.[moe]([m5C])p.[moe](T)[sp].d(G)[sp].d(A)[sp].d(A)[sp].d(T)[sp].d([m5C])[sp].d([m5C])[sp].d([m5C])[sp].d(A)[sp].d([m5C])[sp].d(T)[sp].[moe](T)p.[moe]([m5C])p.[moe]([m5C])[sp].[moe]([m5C])}$$$$ (last 3' nucleoside missing) | 0
RNA1{[moe](G)[sp].[moe](A)p.[moe](T)p.[moe]([m5C])p.[moe](T)p.[moe](G)p.d(A)[sp].d(A)[sp].d(T)[sp].d([m5C])[sp].d([m5C])[sp].d([m5C])[sp].d(A)[sp].d([m5C])[sp].d(T)[sp].d(T)[sp].[moe]([m5C])p.[moe]([m5C])[sp].[moe]([m5C])}$$$$ (last 3' nucleoside missing) | 0
RNA1{[moe](G)[sp].[moe](A)p.[moe]([m5C])p.[moe](A)p.[moe](T)[sp].d([m5C])[sp].d(A)[sp].d(T)[sp].d(T)[sp].d(T)[sp].d(A)[sp].d(A)[sp].d(T)[sp].d(T)[sp].d(T)[sp].[moe](G)p.[moe](T)p.[moe](G)[sp].[moe]([m5C])}$$$$ (last 3' nucleoside missing) | 0
RNA1{[moe](G)[sp].[moe](A)p.[moe]([m5C])p.[moe](A)p.[moe]([m5C])[sp].d(T)[sp].d(T)[sp].d(T)[sp].d(T)[sp].d(A)[sp].d(T)[sp].d([m5C])[sp].d(T)[sp].d(T)[sp].d(G)[sp].[moe]([m5C])p.[moe](A)p.[moe]([m5C])[sp].[moe](T)}$$$$ (last 3' nucleoside missing) | 2.33
RNA1{[moe](G)[sp].[moe](G)p.[moe](A)p.[moe](A)p.[moe]([m5C])[sp].d(T)[sp].d([m5C])[sp].d(G)[sp].d(A)[sp].d(A)[sp].d([m5C])[sp].d([m5C])[sp].d(A)[sp].d([m5C])[sp].d([m5C])[sp].[moe](T)p.[moe]([m5C])p.[moe](T)[sp].[moe](T)}$$$$ (last 3' nucleoside missing) | 2.5
RNA1{[moe](G)[sp].[moe](G)p.[moe](T)p.[moe](T)p.[moe](T)[sp].d(A)[sp].d([m5C])[sp].d([m5C])[sp].d(T)[sp].d(T)[sp].d(T)[sp].d(A)[sp].d(A)[sp].d([m5C])[sp].d(A)[sp].[moe](T)p.[moe](T)p.[moe]([m5C])[sp].[moe]([m5C])}$$$$ (last 3' nucleoside missing) | 0.25
RNA1{[moe](G)[sp].[moe](G)p.[moe]([m5C])p.[moe](A)p.[moe](T)[sp].d([m5C])[sp].d(A)[sp].d([m5C])[sp].d(T)[sp].d(T)[sp].d(A)[sp].d([m5C])[sp].d(A)[sp].d(A)[sp].d(A)[sp].[moe]([m5C])p.[moe](T)p.[moe]([m5C])[sp].[moe](A)}$$$$ (last 3' nucleoside missing) | 0.375
RNA1{[moe](G)[sp].[moe](G)p.[moe]([m5C])p.[moe](A)p.[moe](T)[sp].d([m5C])[sp].d(A)[sp].d([m5C])[sp].d(T)[sp].d(T)[sp].d(A)[sp].d([m5C])[sp].d(A)[sp].d(A)[sp].d(A)[sp].[moe]([m5C])p.[moe](T)p.[moe]([m5C])p.[moe](A)}$$$$ (last 3' nucleoside missing) | 0
RNA1{[moe](G)[sp].[moe](G)p.[moe]([m5C])p.[moe](A)p.[moe](T)p.[moe]([m5C])[sp].d(A)[sp].d([m5C])[sp].d(T)[sp].d(T)[sp].d(A)[sp].d([m5C])[sp].d(A)[sp].d(A)[sp].d(A)[sp].d([m5C])[sp].[moe](T)p.[moe]([m5C])[sp].[moe](A)}$$$$ (last 3' nucleoside missing) | 0
RNA1{[moe](G)[sp].[moe](G)p.[moe]([m5C])p.[moe](A)p.[moe](T)p.[moe]([m5C])p.d(A)[sp].d([m5C])[sp].d(T)[sp].d(T)[sp].d(A)[sp].d([m5C])[sp].d(A)[sp].d(A)[sp].d(A)[sp].d([m5C])[sp].[moe](T)p.[moe]([m5C])[sp].[moe](A)}$$$$ (last 3' nucleoside missing) | 0
RNA1{[moe](G)[sp].[moe](T)p.[moe](A)p.[moe](G)p.[moe](G)[sp].d(A)[sp].d(A)[sp].d([m5C])[sp].d(T)[sp].d([m5C])[sp].d(G)[sp].d(A)[sp].d(A)[sp].d([m5C])[sp].d([m5C])[sp].[moe](A)p.[moe]([m5C])p.[moe]([m5C])[sp].[moe](T)}$$$$ (last 3' nucleoside missing) | 2
RNA1{[moe](G)[sp].[moe](T)p.[moe](A)p.[moe](T)p.[moe]([m5C])[sp].d([m5C])[sp].d(T)[sp].d([m5C])[sp].d(T)[sp].d(T)[sp].d(A)[sp].d(A)[sp].d(T)[sp].d(T)[sp].d([m5C])[sp].[moe]([m5C])p.[moe](T)p.[moe](A)[sp].[moe](T)}$$$$ (last 3' nucleoside missing) | 0
RNA1{[moe](G)[sp].[moe](T)p.[moe](A)p.[moe]([m5C])p.[moe](A)[sp].d(T)[sp].d(A)[sp].d(T)[sp].d(T)[sp].d([m5C])[sp].d(A)[sp].d(T)[sp].d(T)[sp].d([m5C])[sp].d(A)[sp].[moe](A)p.[moe](T)p.[moe]([m5C])[sp].[moe](T)}$$$$ (last 3' nucleoside missing) | 0
RNA1{[moe](G)[sp].[moe](T)p.[moe](A)p.[moe]([m5C])p.[moe](T)[sp].d(G)[sp].d(T)[sp].d(T)[sp].d(T)[sp].d([m5C])[sp].d(T)[sp].d(T)[sp].d([m5C])[sp].d(T)[sp].d(T)[sp].[moe]([m5C])p.[moe](A)p.[moe](G)[sp].[moe]([m5C])}$$$$ (last 3' nucleoside missing) | 2
